Measurements taken from ChEMBL document CHEMBL1201862, “PubChem BioAssay data set” (2004).
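In this assay, cells in 96-well plates receive the compound at five concentrations for 48 hours. Endpoints are linearly interpolated between the surrounding concentrations. Abbreviation: GI50, concentration required for 50% inhibition of growth.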 The source made the active and inactive calls. Rule as the data show it: active = GI50 up to about 1.1 µM and inactive = higher.

Key:
Assay in all cases: DTP human tumour cell line panel, 48 h
OVCAR-4 = tested on: OVCAR-4
KM12 = tested on: KM12
HL-60 = tested on: HL-60
SK-MEL-28 = tested on: SK-MEL-28
CAKI-1 = tested on: CAKI-1
A498 = tested on: A498
NCI/ADR-RES = tested on: NCI/ADR-RES
TK-10 = tested on: TK-10
IGROV-1 = tested on: IGROV-1
OVCAR-8 = tested on: OVCAR-8
HT-29 = tested on: HT-29
K562 = tested on: K562
MCF7 = tested on: MCF7
SN12C = tested on: SN12C
SF-268 = tested on: SF-268
HCC 2998 = tested on: HCC 2998
HCT-15 = tested on: HCT-15
LOX IMVI = tested on: LOX IMVI
SK-MEL-2 = tested on: SK-MEL-2
OVCAR-3 = tested on: OVCAR-3

Row | SMILES | GI50 (OVCAR-4) | GI50 (KM12) | GI50 (HL-60) | GI50 (SK-MEL-28) | GI50 (CAKI-1) | GI50 (A498) | GI50 (NCI/ADR-RES) | GI50 (TK-10) | GI50 (IGROV-1) | GI50 (OVCAR-8) | GI50 (HT-29) | GI50 (K562) | GI50 (MCF7) | GI50 (SN12C) | GI50 (SF-268) | GI50 (HCC 2998) | GI50 (HCT-15) | GI50 (LOX IMVI) | GI50 (SK-MEL-2) | GI50 (OVCAR-3)
1 | COC(=O)C1=C(C(=O)OC)SC2(S1)C1=C(CCCC1)SC(C(=O)OC)=C2C(=O)OC | 12.2 µM (inactive) | 5.74 µM (inactive) | 2.91 µM (inactive) | 9.29 µM (inactive) | 4.06 µM (inactive) | 6.21 µM (inactive) | 17.9 µM (inactive) | 10.9 µM (inactive) | 8.32 µM (inactive) | 6.32 µM (inactive) | 2.84 µM (inactive) | 1.62 µM (inactive) | 2.61 µM (inactive) | 2.76 µM (inactive) | 9.71 µM (inactive) | 12.3 µM (inactive) | 4.39 µM | 2.83 µM (inactive) | 15.5 µM (inactive) | 6.89 µM (inactive)
2 | Cc1c(C)n(-c2ccccc2)c2nc(S(C)(=O)=O)nc(S(C)(=O)=O)c12 | 1.65 µM (inactive) | 13.7 µM (inactive) | 1.58 µM (inactive) | 2.53 µM (inactive) | 0.171 µM (active) | 14.1 µM (inactive) | 23.1 µM (inactive) | 1.58 µM (inactive) | 4.72 µM (inactive) | 2.19 µM (inactive) | 1.92 µM (inactive) | 1.4 µM (inactive) | 1.25 µM (inactive) | 17.8 µM (inactive) | 14 µM (inactive) | 23.3 µM (inactive) | 1.61 µM | 1.71 µM (inactive) | 2.07 µM (inactive) | 1.6 µM (inactive)
3 | O=c1c2cc(I)ccc2nc(S)n1Cc1ccccc1 | 9.71 µM (inactive) | 9.08 µM (inactive) | 6.84 µM (inactive) | 43.2 µM (inactive) | 1.92 µM (inactive) | 18.8 µM (inactive) | 18.5 µM (inactive) | 16.8 µM (inactive) | 4.07 µM (inactive) | 23.1 µM (inactive) | 32.9 µM (inactive) | 35.6 µM (inactive) | 28.1 µM (inactive) | 10.6 µM (inactive) | 11 µM (inactive) | 17.1 µM (inactive) | 32.1 µM | 37.8 µM (inactive) | 14.6 µM (inactive) | 6.65 µM (inactive)
4 | O=c1c2c3c(sc2nc2n1NC=NN2)CCCC3 | 17.6 µM (inactive) | 18.1 µM (inactive) | 1.2 µM (inactive) | 17.7 µM (inactive) | 18 µM (inactive) | > 53.6 µM (inactive) | 26.7 µM (inactive) | 24 µM (inactive) | 26.6 µM (inactive) | 24.7 µM (inactive) | 17.5 µM (inactive) | 2.15 µM (inactive) | 13.8 µM (inactive) | 17.9 µM (inactive) | 17.5 µM (inactive) | 24.4 µM (inactive) | 17.4 µM | 2.49 µM (inactive) | 19.4 µM (inactive) | 1.28 µM (inactive)
5 | O=c1[nH]c(=O)n(C2OC(CO)C(O)C2O)c2c1CCCC2 (stereo not given) | > 100 µM (inactive) | > 100 µM (inactive) | > 100 µM (inactive) | > 100 µM (inactive) | > 100 µM (inactive) | > 100 µM (inactive) | > 100 µM (inactive) | > 100 µM (inactive) | > 100 µM (inactive) | > 100 µM (inactive) | > 100 µM (inactive) | > 100 µM (inactive) | > 100 µM (inactive) | > 100 µM (inactive) | > 100 µM (inactive) | > 100 µM (inactive) | > 100 µM | > 100 µM (inactive) | > 100 µM (inactive) | > 100 µM (inactive)
6 | CC(C)(C)C(=O)/C=C(\OB(F)F)C(C)(C)C | > 100 µM (inactive) | > 100 µM (inactive) | > 100 µM (inactive) | > 100 µM (inactive) | > 100 µM (inactive) | > 100 µM (inactive) | > 100 µM (inactive) | > 100 µM (inactive) | > 100 µM (inactive) | > 100 µM (inactive) | > 100 µM (inactive) | > 100 µM (inactive) | > 100 µM (inactive) | > 100 µM (inactive) | > 100 µM (inactive) | > 100 µM (inactive) | > 100 µM | > 100 µM (inactive) | > 100 µM (inactive) | > 100 µM (inactive)
7 | O=C(CCCN1CCC2(CC1)CC(c1ccccc1)OC2=O)c1ccc(F)cc1 (stereo not given) | 37.9 µM (inactive) | 35 µM (inactive) | 25.6 µM (inactive) | 39.4 µM (inactive) | 24.5 µM (inactive) | 24 µM (inactive) | 92 µM (inactive) | 59 µM (inactive) | > 100 µM (inactive) | > 100 µM (inactive) | 9.06 µM (inactive) | 29.5 µM (inactive) | 35.2 µM (inactive) | 48.6 µM (inactive) | 53.7 µM (inactive) | 23.4 µM (inactive) | 37.2 µM | 19.6 µM (inactive) | 35.1 µM (inactive) | 33.3 µM (inactive)
8 | O=C1Sc2ccccc2NC1=C(C(=O)c1ccccc1)C(=O)c1ccccc1 | 69.8 µM (inactive) | 31.6 µM (inactive) | 1.87 µM (inactive) | > 100 µM (inactive) | 56.2 µM (inactive) | 34.8 µM (inactive) | 22.3 µM (inactive) | 26.1 µM (inactive) | 38.4 µM (inactive) | 22.9 µM (inactive) | 22.5 µM (inactive) | 2.88 µM (inactive) | 2.44 µM (inactive) | 18.2 µM (inactive) | 14.9 µM (inactive) | 19.4 µM (inactive) | 19.5 µM | 13.5 µM (inactive) | 19.4 µM (inactive) | 5.18 µM (inactive)
9 | Cc1nc2ccc(NCCN(C)C)c3c(=O)c4cc(O)ccc4n1c23 | 0.63 µM (active) | 0.783 µM (active) | 0.662 µM (active) | 3.03 µM (inactive) | 0.25 µM (active) | 1.42 µM (inactive) | 1.27 µM (inactive) | 2.75 µM (inactive) | 0.839 µM (active) | 0.248 µM (active) | 0.156 µM (active) | 0.298 µM (active) | 0.743 µM (active) | 0.299 µM (active) | 0.75 µM (active) | 0.252 µM (active) | 0.394 µM | 0.379 µM (active) | 3.35 µM (inactive) | 1.27 µM (inactive)
10 | COc1ccc(CCCNC(=O)c2cc(OC)c(OC)cc2CCO)cc1OC | > 100 µM (inactive) | > 100 µM (inactive) | > 100 µM (inactive) | > 100 µM (inactive) | > 100 µM (inactive) | > 100 µM (inactive) | > 100 µM (inactive) | > 100 µM (inactive) | > 100 µM (inactive) | > 100 µM (inactive) | > 100 µM (inactive) | > 100 µM (inactive) | > 100 µM (inactive) | > 100 µM (inactive) | > 100 µM (inactive) | > 100 µM (inactive) | > 100 µM | > 100 µM (inactive) | > 100 µM (inactive) | > 100 µM (inactive)
11 | C/C1=C\CC/C(C)=C/C=C(/C(C)C)CC/C(C(=O)O)=C/CC1 [CROTOCEMBRANEIC ACID] | 55.1 µM (inactive) | 42.9 µM (inactive) | 33 µM (inactive) | > 100 µM (inactive) | 49.9 µM (inactive) | 21 µM (inactive) | 44.8 µM (inactive) | 56.8 µM (inactive) | 61.1 µM (inactive) | 66.2 µM (inactive) | 46.7 µM (inactive) | 33.9 µM (inactive) | 34.2 µM (inactive) | 45.3 µM (inactive) | 72.8 µM (inactive) | 37.6 µM (inactive) | 37.8 µM | 54.8 µM (inactive) | 25.7 µM (inactive) | 22.9 µM (inactive)
